Drawing on publication PMC9975039 (Oncogene, 2023), this text covers IC50 for 1 molecule.

Molecules are shown by their SMILES.

The experiment concerns the target T1, AKR1C3 (Homo sapiens, UniProt P42330).
T1 sequence (P42330 1-323): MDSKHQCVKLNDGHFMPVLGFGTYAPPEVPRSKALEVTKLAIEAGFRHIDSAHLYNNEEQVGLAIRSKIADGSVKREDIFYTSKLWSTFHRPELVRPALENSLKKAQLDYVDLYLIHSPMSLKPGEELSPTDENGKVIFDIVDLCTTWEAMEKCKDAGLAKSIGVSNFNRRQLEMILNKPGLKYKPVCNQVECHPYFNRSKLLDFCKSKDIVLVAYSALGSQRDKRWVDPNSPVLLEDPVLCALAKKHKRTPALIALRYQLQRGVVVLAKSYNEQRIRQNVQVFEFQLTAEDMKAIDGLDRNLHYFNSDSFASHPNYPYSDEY
Briefly: S-tetralol oxidation assay, recombinant AKR1C3, absorbance at […] nm. The class given is biochemical.

With `NS(=O)(=O)c1ccc(-n2nc(CCCNC(=O)Nc3ccc(C(F)(F)F)cc3)cc2-c2ccccc2)cc1` [PTUPB, 4-(5-phenyl-3-{3-[3-(4-trifluoromethyl-phenyl)-ureido]-propyl}-pyrazol-1-yl)-benzenesulfonamide], the IC50 was ~65 nM.

One may read the IC50 as the concentration at which inhibition is half-maximal.
